Results: patent US10857180B2, “Pharmaceutical composition for improving health, cure abnormalities and degenerative disease, achieve anti-aging effect of therapy and therapeutic effect on mammals and method thereof” (priority 2014, dated 2020)
Marks after values point to notes of the source that are not given here.

Columns and labels:
[1] = system: Ehrlich ascites carcinoma (EAC); experiment: Ehrlich ascites carcinoma (EAC) mouse model; assay type: in vivo
Text: 10 male outbred mice (5 mice per group) at the age of 10 weeks, weighing 19-23 g were used in Ehrlich ascites carcinoma (EAC) model. Before the experiment, all the animals were healthy, with normal behavioral performance. During the experiment, the animals were kept in plastic cages under natural light illumination, on a standard diet with free access to food and water. An ascites strain of mouse breast cancer (EAC) maintained in outbred mice was used in the experiment. To inoculate the strain, the tumor cells derived from the ascitic fluid were placed in saline solution. The suspension cellularity was evaluated in the hemocytometer and adjusted to a concentration of 1×10^6 cells/ml with saline solution. The tumor was transplanted by injecting […] of the tumor cell suspension (0.25×10^6 cells/mouse) into the abdominal cavity of the animals.
The animals were divided into groups as follows: • Group No 1—control group, mice with EAC+solvent (deuterium-depleted water (this water contains deuterium at a level of 10 ppm)); • Group No 2−mice with EAC+^64Zne aspartate.
The solution comprising ^64Zne aspartate was injected intraperitoneally using a microinjection syringe at a dose of 0.075 mg (75 μg)/mouse every other day (5 times during 10 days) starting from the first day after injection in a volume of 0.5 ml/mouse. […] On the 13th day after i.p. inoculation of tumor cells, the whole ascites fluid was recovered from the animals and the total number of live/dead cells in each mouse was determined. Deuterium-depleted water alone was used instead of a solution of ^64Zne aspartate as control in the experiment.
The dynamics of formation of ascites in the control and experimental groups was assessed visually using a 10-point scale (one point was 0.46 cm of the mean diameter of the mouse abdomen filled with ascites).
In addition, on the 13th day after intraperitoneal inoculation of tumor cells, all ascetic fluid was removed from the abdomens in all animals from each group by washing their peritoneal cavities with saline solution and live and dead tumor cells were counted using the traditional vital dye trypan blue (HyClon, USA) and a hemocytometer.
The number of cells was determined using the following formula: X=((a)/80)×10^6, where X is the number of cells in 1 ml and a is the number of cells counted in 80 small squares of the hemocytometer.

[2] = system: acute promyelocyte leukemia (HL-60 line) cells; experiment: Immunocytochemical analysis (H-Score) of HL-60 cells; assay type: cell-based, human
Procedure: Materials and methods for leukemia cell lines HL-60 and Namalva and cell culture conditions will now be described. Initial HL-60 and Namalva cells were cultured in complete RPMI 1640 medium (PAA) (PAA, Austria) supplemented with 10% fetal calf serum (PAA) and incubated in 5% CO2 humidified atmosphere at 37° C. The culture medium was replaced in 2 to 3 days and the cells were passaged in 4 to 5 days.
In carrying out the immunocytochemical (ICC) assay, cells on microscope glasses (cytospin preparations) were fixed in the solution (methanol+acetone (1:1)) for 2 hours at t−20° C. and then incubated with a 1% solution of bovine serum albumin (BSA) for 20 minutes.
After the immunocytochemical reaction, the preparations were rinsed with water and counterstained with hematoxylin and eosin for 15 to 30 seconds. The results were analyzed by a quantitative estimation of cells with the marker expression (increased brown color of cells corresponded to a higher degree of expression of the marker) using a light microscope and assessed using the classical H-Score method: S=1×A+2×B+3×C, where S is the H-Score index the values of which are within the scope of 0 (protein is not detectable) to 300 (high-level expression in 100% of the cells), A is a percentage of weakly stained cells, B is the percentage of moderately stained cells, and C the percentage of strongly stained cells.

[3] = system: normal rat kidney cells (NRK line); experiment: Immunocytochemistry of NRK cells; assay type: cell-based
Procedure: When making the immunocytochemistry (ICC) assay, cells on microscope glasses (cytospin preparations) were fixed in the solution (methanol+acetone 1:1) for 2 hours at t 20° C. and incubated with 1% solution of bovine serum albumin (BSA) for 20 minutes. Then the monoclonal antibodies-CD44 (Diagnostic BioSystems), E-cadherin (ThermoScientific), N-cadherin (NeoMarker, BioLegend), SLUG (GeneTex)—were applied for the time period specified by the manufacturer (30 to 60 minutes), after which the Poly Vue imaging system conjugated with peroxidase was used and the enzyme activity was detected using diaminobenzidine (ThermoScientific) as a substrate. After the immunocytochemical reaction the preparations were washed with water and counterstained with hematoxylin-eosin (for 15 to 30 seconds).
The results were analyzed by counting cells with expression (brown colored cells) using a light microscope, and were assessed using the classical H-Score method: S=1×A+2×B+3×C, where S is the H-Score index giving a range of 0 (protein is not detected) to 300 (high-level expression in 100% of the cells); A is the percentage of weakly staining cells, B is the percentage of moderately staining cells and C is the percentage of strongly staining cells.

MCF-7 cell line = experiment: Cytogenetic analysis (micronucleus test) of MCF-7 cells; assay type: cell-based, human
Procedure: Advanced Micronucleus Test was used to assess the cytogenetic characteristics of cells after their exposure to the action of the test group of components.
Cytogenetic analysis was carried out after 48 hours of exposure of the cells to the action of the components. For cytogenetic analysis, the cells were incubated in hypotonic solution KCl (0.54%) (Reahim, Ukraine) for 40 minutes at +37° C. Then they were fixed with a mixture of methyl alcohol (Reahim, Ukraine) and acetic acid (Himlaborreaktiv, Ukraine) (3:1) with replacing the fixative three times. All fixed cell suspensions were applied on cold wet glasses, dried and stained with Giemsa stain (Sigma, Germany). The cytogenetic preparations were analyzed using a binocular microscope Sari Zeiss, AxioStarPlus (Germany) with magnification of x 1000. The following quantitative characteristics and stages of cell division were analyzed on the preparations: mitoses, cells with premature chromosome condensation (PCC), cells with micronuclei (CMN), apoptotic cells and cells with nuclear protrusions (protrusions) which were calculated for 1000 cells and expressed in per mille (%).

[4] = system: healthy human skin cells (HaCaT cell line); experiment: Scratch assay, HaCaT cells; assay type: cell-based; settings: ^64Zn 25 mcg/ml; equal to control
Procedure: The cells of A-549, A-431, NRK, HaCaT, MM-4, normal fibroblasts (derived from the Bank of Cell Lines from human and animal tissues, R. E. Kavetsky Institute of Experimental Pathology, Oncology and Radiobiology, National Academy of Sciences of Ukraine) were cultured in complete culture medium RPMI 1640/DMEM (PAA, Austria) (depending on the cell type) supplemented with 10% fetal calf serum (PAA, Austria) and incubated in 5% CO2 humidified atmosphere at 37° C. The culture medium was replaced in 2 to 3 days and the cells were passaged in 4 to 5 days.
Analysis of the influence of the components under study on the cell migration rate was performed using the scratch assay method. […]
The plate was incubated in a CO2 incubator for additional 48 hours. After the cells formed a dense monolayer it was damaged (by making a “scratch”) and the growth medium was replaced to remove cell debris and smooth the edges of the “scratch.” The rate of cell migration was analyzed using an inverted microscope and by photographing cells in the area of injury. The migration activity of cells was fixed at several time points (depending on the cell line analyzed). The microphotomicrographs were analyzed and the cell incubation time needed to restore the monolayer was determined for all experimental groups. […]

`NC(CC(=O)[O-])C(=O)[O-].[64Zn+2]` (racemic) [^64Zne aspartate, ^64Zn aspartate (racemic)] was tested, and the “suppression of growth of Ehrlich ascites carcinoma” value ([1]; after 5 injections) was 100%, the “Volume of ascites in mice” value ([1]; day 7 after inoculation, 75 μg/mouse i.p. every other day x5) was 0* points and the “Volume of ascites in mice” value ([1]; day 9, 75 μg/mouse i.p. x5) was 0** points. The “Volume of ascites in mice” value ([1]; day 11, 75 μg/mouse i.p. x5) was 0* points, the “Number of dead cells/mouse” value ([1]; day 13, 75 μg/mouse i.p.) was 0 and the “Number of live cells/mouse (M ± m)” value ([1]; day 13, 75 μg/mouse i.p.) was 0* cells/mouse. The “Volume of ascites (M ± m)” value ([1]; day 13, 75 μg/mouse i.p.) was 0* ml/mouse and the “Volume of ascites in mice” value ([1]; day 13, 75 μg/mouse i.p. x5) was 0** points.

In the case of `[39K+].[Cl-]` [^39K], the “amount of N-cadherin-positive cells” value [2] is reported as “in most cases increased”, the “number of cells expressing ICAM” value ([2]; ^39K 2 and 0.5 mg/ml, ^64Zn 10 mcg/ml) is reported as “reduction in the number of cells” and the “level of expression of CD44” value ([2]; especially in high doses) is reported as “tendency to decrease in the level of expression”.

With `O=S(=O)([O-])[O-].[64Zn+2]` [^64Zn] the “phenotype of normal cells” value [3] was “has not changed”, the “level of cells with micronuclei” value (MCF-7 cell line) was “more than a two-fold increase” and the “time of monolayer healing” value [4] was 36 h.
